Measured values taken from patent US20070264287A1, “Methods for Increasing the Immune Response in an Animal” (priority 2004, published 2007).

Test system: NK cell activity
Experiment: NK cell activity in old dogs fed a diet fortified with lipoic acid
Format: in vivo
Settings: old beagles (Group 3, average age 11.3 years), dry food fortified with 150 ppm lipoic acid on a dry matter basis, six weeks, versus baseline and young and old controls; FIG. 1
Source text: The dogs are beagles and Group 1 consists of 10 beagles with the average age of 5.1 years old, Group 2 consists of 10 beagles with an average age of 11.8 years old, and Group 3 consists of 10 beagles with an average age of 11.3 years old. The dogs from all three groups are fed the controlled food for a two week period prior to intervention. […] During the two week period on the control, samples are taken from all dogs and chemical and biological analysis is completed on the samples to establish base line data. Then three groups of dogs eat their respective diets for a six week period of time and after this time period, samples are taken from all of the dogs in the study and chemical and biological analysis is completed on the samples. Baseline data is compared to the data taken at the end of the six week study.

O=C(O)CCCC[C@@H]1CCSS1 (racemic) [lipoic acid]
NK cell activity: increased NK cell activity
